Test results published in US8207189B2, “Compound having affinity for amyloid” (Nihon Medi-Physics Co., Ltd., priority 2007, dated 2012).

Assays:
[1] = transferability into brain and clearance after intravenous injection; format: in vivo, rat
Method: Using Compound 1 (Example 10) and Compound 2 (Example 11), a time course change of radioactive accumulation in brain of male Wistar rats (7-week old) was measured.
A diethyl ether solution of Compound 1 (Example 10) prepared in Example 3, a diethyl ether solution of Compound 2 (Example 11) prepared in Example 6 and a diethyl ether solution of [^123I]-IMPY (Comparative Example 5) prepared in Reference Example 1 were each diluted with 10 mg/mL ascorbic acid-containing physiological saline solution to adjust to a radioactive concentration of 8-12 MBq/mL. 0.05 mL each of the prepared sample solutions was injected under thiopental anesthesia into the tail vein of the rats. The rats were sacrificed by bleeding from abdominal artery, and brains were removed and subjected to measurement of mass of brains and further subjected to measurement of radioactivity (hereinafter referred to as A in this Example) with a single channel analyzer (detector type: SP-20 manufactured by OHYO KOKEN KOGYO Co., Ltd.) 2, 5, 30 and 60 minutes after the injection. Further, the radioactivity level of the rest of the whole body was measured in the same manner as above (hereinafter referred to as B in this Example). Using these measurement results, radioactive distribution per unit weight of brain (% ID/g) at the respective time points were calculated in accordance with the following formula (3).
Three animals were used for the experiment at the respective time points.
Using Compound 4 and Compound 6, a time course change of radioactive accumulation in brain of male Wistar rats (7-week old) was measured.
Compound 4 (Example 22), Compound 6 (Example 23) and a solution of [^123I]-IMPY (Comparative Example 8) prepared above in Reference Example 1 were each diluted with a 10 mg/mL ascorbic acid-containing physiological saline solution to prepare solutions (20-31 MBq/mL in radioactive concentration). 0.05 mL each of the prepared sample solutions was injected under thiopental anesthesia into the tail vein of the respective Wistar rat (7-week old). The rats were sacrificed by bleeding from abdominal artery, and brains were removed and subjected to measurement of mass of brains and further subjected to measurement of radioactivity (hereinafter referred to as A in this Example) with a single channel analyzer (detector type: SP-20 manufactured by OHYO KOKEN KOGYO Co., Ltd.) 2, 5, 30 and 60 minutes after the injection. Further, the radioactivity level of the rest of the whole body was measured in the same manner as above (hereinafter referred to as B in this Example). Using these measurement results, radioactive distribution per unit weight of brain (% ID/g) at the respective time points were calculated in accordance with the following formula (5).

[2] = system: amyloid (aggregated Aβ1-42) injected into amygdaloid nucleus; experiment: confirmation of imaging of amyloid in brain (autoradiogram, Aβ1-42 injected rats); format: in vivo, rat; conditions: brain slice 60 minutes after intravenous injection
Method: (§1) (1) Aβ1-42 (manufactured by Wako) was dissolved in phosphate buffer (pH 7.4) and shaken at 37° C. for 72 hours, to obtain a 1 mg/mL suspension of aggregated Aβ (hereinafter referred to as amyloid suspension in the Examples).
(§2) (2) 2.5 μL (corresponding to […]) of the amyloid suspension was injected into an amygdaloid nucleus on one side of a male Wistar rat (7-week old). As a control, 2.5 μL of a phosphate buffered physiological saline solution (pH 7.4) was injected into an amygdaloid nucleus on the other side of the rat. The rats were examined 1 day after the injection of the amyloid suspension and the phosphate buffered physiological saline solution (pH 7.4).
(§3) (3) Compound 1 was dissolved in a 10 mg/mL ascorbic acid-containing physiological saline solution to obtain a sample solution (22 MBq/mL in radioactivity concentration in the sample solution). This solution was injected under thiopental anesthesia into the rat through the tail vein (dosage: 0.5 mL, dosed radioactivity: 11-13 MBq equivalent).
(§4) (4) Brain was removed 60 minutes after the injection to prepare a brain slice of 10 μm in thickness with a microtome (type: CM3050S, manufactured by LEICA). The brain slice was exposed to an imaging plate for 20 hours, and then image analysis was carried out by use of a Bio-imaging Analyzer (type: BAS-2500; manufactured by FUJIFILM Corporation).
(§5) Thus, it was confirmed that amyloid was deposited on the slice (FIG. 6b).
(§6) The same procedures as in Example 12 were performed except using a solution of Compound 2 in a 10 mg/mL ascorbic acid as a sample solution (the radioactive concentration of the sample solution was 25 MBq/mL).
(§7) (1) Aβ1-42 (manufactured by Wako) was dissolved in phosphate buffer (pH 7.4) and shaken at 37° C. for 72 hours, to obtain 1 mg/mL of a suspension of aggregated Aβ (hereinafter referred to as amyloid suspension in the Examples).
(§8) (3) A sample solution (30 MBq/mL in radioactivity concentration, Example 24) in which Compound 4 was dissolved in a 10 mg/mL ascorbic acid-containing physiological saline solution and a sample solution (30 MBq/mL in radioactivity concentration, Example 25) in which Compound 6 was dissolved in a 10 mg/mL ascorbic acid-containing physiological saline solution were prepared. This solution was injected under thiopental anesthesia into the rat through the tail vein (dosage: 0.5 mL, dosed radioactivity: 11-15 MBq equivalent).
(§9) Thus, it was confirmed that amyloid was deposited on the slice (FIG. 12 and FIG. 13).

[3] = target: T1, amyloid (aggregated Aβ1-42) injected into amygdaloid nucleus (Homo sapiens, UniProt P05067); experiment: as above; format: in vivo, rat; conditions: brain slice 60 minutes after intravenous injection, Aβ1-42
T1 construct: Aβ1-42 (manufactured by Wako) was dissolved in phosphate buffer (pH 7.4); purchased Wako
T1 sequence (P05067 672-713): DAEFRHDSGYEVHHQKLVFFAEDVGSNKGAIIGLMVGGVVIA
Method: as §1, §2, §3, §4, §5, §6, §7, §8, §9

[4] = partition coefficient based on the octanol extraction method; format: physicochemical; conditions: octanol / 10 mmol/L phosphate buffer pH 7.4; Table 4 (Examples 8-9, Comparative Example 4)
Method: Partition coefficients based on the octanol extraction method (hereinafter referred to as log Poctanol) were measured, which are generally known as an indicator of permeability of compounds through the blood-brain barrier (hereinafter referred to as BBB).
A diethyl ether solution of Compound 1 prepared in Example 3 (Example 8), a diethyl ether solution of Compound 2 prepared in Example 6 (Example 9), and a diethyl ether solution of [^123I]-IMPY prepared in Reference Example 1 (Comparative Example 4) were each diluted with 10 mg/mL ascorbic acid-containing physiological saline solution, and adjusted to a radioactive concentration of 20-30 MBq/mL. To 2 mL of octanol, 10 μL each of the prepared sample solutions was added, 2 mL of 10 mmol/L phosphate buffer (pH 7.4) was added, followed by stirring for 30 seconds. After the mixture was centrifuged with a low-speed centrifuge (2000 rpm×60 min.), the octanol layer and the water layer were sampled each in an amount of 1 mL, and subjected to measurement of radioactivity count with an autowell gamma system (Type: ARC-301B, manufactured by Aloka). Using the obtained radioactivity count, log Poctanol was calculated in accordance with the equation (2).
A diethyl ether solution (Example 20) of Compound 4 prepared in Example 16, a diethyl ether solution (Example 21) of Compound 6 prepared in Example 19, and a diethyl ether solution (Comparative Example 7) of [^123I]-IMPY were each diluted with a 10 mg/mL ascorbic acid-containing physiological saline solution to adjust to a radioactive concentration of 20-30 MBq/mL. To 2 mL of octanol, 10 μL each of the prepared sample solution was added, and 2 mL of 10 mmol/L phosphate buffer (pH 7.4) was further added, followed by stirring for 30 seconds. After the mixture was centrifuged with a low-speed centrifuge (2000 rpm×60 min.), the octanol layer and the water layer were sampled each in an amount of 1 mL, and subjected to measurement of radioactivity count with an autowell gamma system (Type: ARC-301B, manufactured by Aloka). Using the obtained radioactivity count, log Poctanol was calculated in accordance with the equation (4).

[5] = normal mice, [125I]-labeled, cited from earlier work; for transfer into brain: 2 minutes after administration
[6] = system: Salmonella typhimurium TA100; experiment: reverse mutation test (Ames test), TA100; format: cell-based
Method: (§10) In order to examine gene mutagenicity of Compound 3, 5 and 8, reverse mutation test using Salmonella typhimurium TA98 and TA100 (hereinafter referred to as Ames test) was conducted.
(§11) The test was conducted without addition of S9mix and with addition of S9mix. Dimethylsulfoxide (DMSO) was used as a negative control. A positive control was 2-(2-furyl)-3-(5-nitro-2-furyl)acrylamide (hereinafter referred to as AF-2) in case S9mix was not added, and 2-aminoanthracene (hereinafter referred to as 2-AA) in case S9mix was added.
(§12) As a sample solution to be added to a test plate, each compound was dissolved in DMSO to prepare a solution at a concentration of 50 mg/mL, and further, each solution was diluted with DMSO to prepare a solution with 7 dosage (geometric ratio 3). As a sample solution for preparing a sample of positive control, when TA98 was used as a test strain without addition of S9mix, a solution of AF-2 (compound concentration: 1 μg/mL) in DMSO was prepared; when TA100 was used as a test strain without addition of S9mix, a solution of AF-2 (compound concentration: 0.1 μg/mL) in DMSO was prepared; when TA98 was used as a test strain with addition of S9mix, a solution of 2-AA (compound concentration: 5 μg/mL) in DMSO was prepared; and when TA100 was used as a test strain with addition of S9mix, a solution of 2-AA (compound concentration: 10 μg/mL) in DMSO was prepared.
(§13) After each sample solution to be examined and a test strain (TA98 or TA100) were mixed together so as to make the addition amount of each sample to be 0.1 mL/plate, the mixture was multilayered using soft agar on a medium of a test plate, and then incubated at 37° C. for 48 hours. Separately, after each sample solution to be examined, S9mix and a test strain were mixed together so as to make the addition amount of each sample to be 0.1 mL/plate, the mixture was multilayered using soft agar on a medium of a test plate, and then incubated at 37° C. for 48 hours. On the other hand, only DMSO was used as a sample solution to perform the same procedure as above for the negative control.

[7] = system: Salmonella typhimurium TA98; experiment: reverse mutation test (Ames test), TA98; format: cell-based
Method: as §10, §11, §12, §13

Compound | transfer into brain [5] | clearance from normal tissues [5] | Mutagenicity, TA100, With addition of S9mix [6] | Mutagenicity, TA100, Without addition of S9mix [6] | Mutagenicity, TA98, With addition of S9mix [7] | Mutagenicity, TA98, Without addition of S9mix [7] | other results
2-[4′-(2″-hydroxyethoxy)phenyl]-6-[^123I]iodoimidazo[1,2-a]pyridine [Compound 1] | – | – | – | – | – | – | Radioactive distribution per unit weight in brain, After 2 min. ([1]; male Wistar rats, intravenous injection, 2 min, Table 5): 0.90 % ID/g; Radioactive distribution per unit weight in brain, After 5 min. ([1]; male Wistar rats, intravenous injection, 5 min, Table 5): 0.52 % ID/g; Radioactive distribution per unit weight in brain, After 30 min. ([1]; male Wistar rats, intravenous injection, 30 min, Table 5): 0.06 % ID/g; Radioactive distribution per unit weight in brain, After 60 min. ([1]; male Wistar rats, intravenous injection, 60 min, Table 5): 0.01 % ID/g; radioactive accumulation in brain two minutes after the injection (in words) ([1]; rats, intravenous, 2 min): significant radioactive accumulation; clearance from brain in 60 minutes (in words) ([1]; rats, intravenous, 60 min): rapidly clear away; accumulation of radioactivity at sites other than the amyloid injected sites [2]: little radioactive accumulation; accumulation of radioactivity in amygdaloid nucleus on the physiological saline-injected side [2]: no significant accumulation of radioactivity; accumulation of radioactivity in amygdaloid nucleus on the amyloid-injected side [3]: marked accumulation of radioactivity; logPoctanol value [4]: 1.8
CN(C)c1ccc(-c2nc3ccc(I)cc3o2)cc1 [IBOX, 6-iodo-2-[4′-(N,N-dimethylamino)phenyl]benzoxazole] | transferred into brain | insufficient in clearance from normal tissues | – | – | – | – | –
CN(C)c1ccc(-c2nc3ccc(I)cc3s2)cc1 [TZDM, 6-iodo-2-[4′-(N,N-dimethylamino)phenyl]benzothiazole] | transferred into brain | insufficient in clearance from normal tissues | – | – | – | – | –
CN(C)c1ccc(/C=C/c2ccc(I)cc2)cc1 [m-I-SB, (E)-4-dimethylamino-4′-iodostilbene] | transferred into brain | insufficient in clearance from normal tissues | – | – | – | – | –
CCOc1ccc(-c2cn3cc(I)ccc3n2)cc1 [Compound 8, 2-(4′-ethoxyphenyl)-6-iodoimidazo[1,2-a]pyridine] | – | – | Negative | Negative | Negative | Negative | –
OCCOc1cccc(-c2cn3cc(I)ccc3n2)c1 [Compound 5, 2-[3′-(2″-hydroxyethoxy)phenyl]-6-iodoimidazo[1,2-a]pyridine] | – | – | Negative | Negative | Negative | Negative | –
OCCOc1ccc(-c2cn3cc(I)ccc3n2)cc1 [Compound 3, 2-[4′-(2″-hydroxyethoxy)phenyl]-6-iodoimidazo[1,2-a]pyridine] | – | – | Negative | Negative | Negative | Negative | –
